In patent publication EP0219491B1, “OXINDOLE ALKALOIDS WITH PROPERTIES STIMULATING THE IMMUNITY SYSTEM AND PREPARATIONS CONTAINING THEM” (KEPLINGER, Klaus, priority 1984, dated 1986):

How the values were obtained:
[1] = tested on: Granulozyten; assay: Chemiluminescence test (CL), respiratory burst of phagocytes activated with opsonised Zymosan; assay type: cell-based
From the text: Obwohl der Granulozytentest nach BRANDT eine zuverlässige Methode zur Ermittlung phagozytosesteigernder Eigenschaften von Substanzen und Extrakten darstellt, ist er sehr zeit- und personalaufwendig. Eine Alternative bietet die neue Methode der Chemilumineszenzmessung phagozytierender Zellen.
Seitdem ALLEN et al. (Biochem. Biophys. Res. Commun, 47,129,1972) als erste die Lichtemission von neutrophilen Granulozyten während der Phagozytose von Latexpartikeln und verschiedener Bakterien entdeckten und NELSON et al. (Infect. Immun 14,129,1976) und WEIDEMANN et al. (FEBS Letters 89,136,1978) CL-Erscheinungen an phagozytierenden Blutmakrophagen (Monozyten) nachweisen konnten, wird diese Reaktion auch in der experimentellen und klinischen Immunologie angewendet. Der genaue Mechanismus der dabei ablaufenden Reaktion konnte allerdings bis heute noch nicht vollständig aufgeklärt werden. Zusammenfassend lässt sich die bei aktivierten Phagozyten auftretende CL folgendermassen darstellen: der Kontakt dieser Zellen mit Bakterien, Viren oder anderem körperfremden Material, z.B. auch chemische Substanzen, führt zunächst zu einer gesteigerten Sauerstoffaufnahme. Anschliessend werden in der Zelle aus dem molekularen Sauerstoff Superoxid-Anion-Radikale O2^- gebildet, die sich dann entweder spontan oder enzymatisch katalysiert in andere aktivierte Sauerstoffmoleküle, wie Wasserstoffperoxid (H202), Singulett-Sauerstoff (^1O2), Hydroxylradikale (OH) und Hypochlorit-Anionen (OCI-) umwandeln. Dieser Vorgang wird «respiratory burst» genannt.
Durch die Freisetzung der aktivierten Sauerstoffmoleküle in die unmittelbare Umgebung der phagozytierenden Zelle, wie auch in die phagozytische Vakuole selbst und durch die Aktivierung lysosomaler Enzyme können eingedrungene Mikroorganismen oder Tumorzellen geschädigt oder getötet werden. Auch andere Moleküle sind daran beteiligt, so z.B. sogenannte kationische Proteine .und Laktoferrin. Die Zellwände der Mikroorganismen werden durch Oxidation oder Reduktion angegriffen und teilweise zerstört. Als Nebeneffekt tritt dabei CL auf, da das Zellwandmaterial als chemilumineszierendes Substrat für die aktivierten Sauerstoffmoleküle dient.
Die geringe Lichtausbeute solcher CL-Reaktionen phagozytierender Zellen wird im in-vitro-Experiment durch den Zusatz von Substanzen erhöht, die durch aktivierten Sauerstoff oxidiert werden und dabei Licht bestimmter Wellenlänge erzeugen, welches physikalisch gemessen werden kann. Als Substrate eignen sich dabei Luminol (5-Amino-2,3-dihydro-1,4-phthalazindion) und Lucigenin (10,10'-Dimethyl-9,9'-biacridiniumdini- trat), welche die CL-Antwort um das 10^3fache steigern.
Durch den Einsatz empfindlicher Messgeräte, in denen die Photonenzählung mit Hilfe von Photomultipliern erfolgt, lässt sich die durch die oben genannten Substanzen verstärkte CL messen. Es wurde ein 6-Kanal-CL-Gerät Biolumat^@ LB 9505 der Fa. Berthold benutzt, das sechs Testungen zur gleichen Zeit ermöglicht. Darüberhinaus erlaubte es das verwendete Gerät auch, die CL-Antwort zeitabhängig zu registrieren. So konnten den Dosis-Wirkungs- Kurven als dritte Dimension die zeitabhängige Wirkung hinzugefügt werden.
Zur in-vitro-Untersuchung des phagozytosesteigenden Wirkung von Substanzen können entweder gereinigte Zellpopulationen von Granulozyten oder Makrophagen verwendet werden, oder die Messung erfolgt direkt in verdünntem Vollblut.
Die Aktivierung der Phagozyten erfolgt dabei durch feste Partikel, z.B. opsonierte Bakterien, Zy- mosan^@ und Latexpartikel, oder durch bestimmte gelöste Substanzen. Bekannte Aktivatoren sind z.B. verschiedene lonophoren und Fluorid-lonen.
• a) Vollblut: 460 µl Veronal®-gepufferte Kochsalzlösung • 200 µl verdünntes Vollblut • 100 pl Lucigenin-Lösung • 200 µl in PBS (phosphat-gepufferte Kochsalzlösung) gelöste Substanz bzw. PBS als Kontrolle • b) PMNL: 630 µl Veronal@-gepufferte Kochsalzlösung • 15 µl PMNL • 100 µl Lucigenin-Lösung 200 µl in PBS gelöste Substanz bzw. PBS als Kontrolle […]

[2] = tested on: Granulozytenfraktion (PMNL-Fraktion); assay: Granulocyte test modified after BRANDT (phagocytosis of yeast cells by PMNL); assay type: cell-based, menschlichen Blut; settings: for Wirksamkeit im Granulozytentest: summary in words
From the text: Neutrophile Granulozyten sind zusammen mit Makrophagen die wichtigsten Effektorzellen der Phagozytose und nehmen damit eine wichtige Stellung in der Infektabwehr ein. Sie stellen etwa 60-70% aller weissen Blutkörperchen im menschlichen Blut dar. Der Phagozytoseleistung dieser Granulozyten lässt sich in vitro nach einer von BRANDT (Scand. J. Haematol. Suppl 2, 1967) entwickelten und vonTYMPNER (Münchn. Med. WSchr. 8, 251, 1978) modifizierten Methodik messen.
Dabei wird aus dem Blut gesunder Probanden eine Granulozytenfraktion (PMNL-Fraktion) gewonnen.
Diese PMNL-Fraktion besteht hauptsächlich aus neutrophilen Granulozyten neben wenig eosinophilen und basophilen Granulozyten sowie Lymphozyten, Monozyten und Thrombozyten. Nach Zusatz einer definierten Menge von Hefezellen (Saccharomyces cerevisiae) und der zu testenden Substanz wird zunächst 10 min bei 37° C inkubiert, die Aufschwemmung auf einem Objektträger ausgestrichen und weitere 35 min bei Raumtemperatur inkubiert. Anschliessend werden die Ausstriche angefärbt und mikroskopisch ausgewertet. Pro Objektträger werden 100 PMNL-Zellen ausgewählt und bestimmt, wieviele Hefepartikel von den einzelnen Zellen phagozytiert wurden. Der Phagozytoseindex (PJ) gibt die durchschnittliche Anzahl von phagozytierten Hefepartikeln pro Granulocyt an. Die Steigerung (S) der Phagozytoseaktivität im Blindwert wurde berechnet nach: [formula]

[3] = tested on: Asciteszellen von Walker-250-Carcinosarkomen von Ratten; assay: Cytotoxicity by 3H-thymidine incorporation test on ascites cells; assay type: cell-based; settings: Walker 256; 2 mg/ml; read-out: Mittelwert der Methotrexat-Hemmung
From the text: Da im Granulozytentest einige Substanzen in hoher Konzentration die Granulozyten lysierten, wurde auch die zellschädigende Wirkung am Modell des 3H-Thymidineinbautests in Asciteszellen geprüft, um eine mögliche Beziehung zwischen Phagozytosesteigerung und Cytotoxizität auffinden zu können.
In diesem in-vitro-Testsystem nach WEITZEL et al (Hoppe-Seyler's Z. Physiorog. Chem. 348, 433, 1967) kann die Cytotoxizität von Substanzen durch Hemmung der DNA-Synthese von Tumorzellen zahlenmässig durch die veränderten Einbauraten von ^3H-Tymidin in Asciteszellen von […] von Ratten erfasst werden.
Die Ergebnisse wurden mit der Kontrolle verglichen und die Hemmeffekte in Prozent ausgedrückt. Relativierung der Testergebnisse Da die prozentuale Einbauhemmung bei gleichen Substanzen Schwankungen bis zu 30% zwischen einzelnen Versuchen zeigte, wurde Methotrexat®, welches als Folsäureantagonist die DNA-Synthese hemmt, als Bezugssubstanz in jeder Versuchsreihe mitgetestet. Der Mittelwert der Methotrexat®-Hemmung (43% bei 2 mg/ml) wurde zur Ermittlung der relativen Hemmung H der Substanzen herangezogen.

[4] = tested on: Makrophagen-Phagozytose; assay: In vitro macrophage phagocytosis; assay type: cell-based; settings: Konzentrationen von 10-^4% und 10-^5%

Compound	Wirkung im Granulozytentest ([2]; tested up to 10^-4%)	prozentuelle Phagozytosesteigerung ([2]; Konzentration 10^-2 (in %))	prozentuelle Phagozytosesteigerung ([2]; Konzentration 10^-3 (in %))	prozentuelle Phagozytosesteigerung ([2]; Konzentration 10^-4 (in %))	prozentuelle Phagozytosesteigerung ([2]; Konzentration 10^-5 (in %))	Wirksamkeit im Granulozytentest [2]	further results
COc1cccc2c1cc([N+](=O)[O-])c1c(C(=O)O)cc3c(c12)OCO3 [Aristolochiasäure, reference compound]							Steigerung der Phagozytoseaktivität (respiratory burst) ([1]; CL-Test mit isolierten Granulozyten, Na-Salz): dosisabhängige Steigerung der Phagozytoseaktivität
COc1ccc2cc3[n+](cc2c1OC)CCc1cc2c(cc1-3)OCO2 [Berberin, reference compound]	unwirksam						
CC[C@@]1(O)C(=O)OCc2c1cc1n(c2=O)Cc2cc3ccccc3nc2-1 [Camotothecin, reference compound]							Wirkung im Granulozytentest ([2]; bis zu Verdünnungen von 10-^6%): keine Wirkungen
O=c1cccc2n1C[C@@H]1CNC[C@H]2C1 [Cytisin, reference compound]	keine Wirkung						
C=C[C@]12CN(C)[C@@H]3[C@H]4CO[C@H](C[C@H]41)[C@]1(C(=O)Nc4ccccc41)[C@@H]32 [Gelsemin, reference compound]		22,1%	40,4%	33,7%	8,2%		
COC(=O)C1=CO[C@@H](C)[C@H]2CN3CC[C@@]4(C(=O)Nc5ccccc54)[C@@H]3C[C@H]12 [Isomitraphyllin, normal-Isomitraphyllin]		16,5%	27,0%	27,0%	19,4%	wirksamen	prozentuelle Phagozytosesteigerung ([2]; Konzentration 10^-6 (in %)): 5,7%; prozentuelle Steigerung der CL-Antwort ([1]; Konzentration 10^-3 %): 15,4%; prozentuelle Steigerung der CL-Antwort ([1]; Konzentration 10^-4 %): 15,7%; prozentuelle Steigerung der CL-Antwort ([1]; Konzentration 10^-5 %): 36,1%; prozentuelle Steigerung der CL-Antwort ([1]; Konzentration 10^-6 %): 46,7%; prozentuelle Steigerung der CL-Antwort ([1]; Konzentration 10^-7 %): 18,6%
COC(=O)C1=CO[C@@H](C)[C@@H]2CN3CC[C@@]4(C(=O)Nc5ccccc54)[C@@H]3C[C@H]12 [Isopteropodin, allo-Isopteropodin]		23,4%	48,7%	55,0%	38,2%	wirksamen	prozentuelle Phagozytosesteigerung ([2]; Konzentration 10^-6 (in %)): 28,2%; prozentuelle Phagozytosesteigerung ([2]; Konzentration 10^-7 (in %)): 13,6%; prozentuelle Steigerung der CL-Antwort ([1]; Konzentration 10^-3 %): 67,2%; prozentuelle Steigerung der CL-Antwort ([1]; Konzentration 10^-4 %): 66,0%; prozentuelle Steigerung der CL-Antwort ([1]; Konzentration 10^-5 %): 55,7%; prozentuelle Steigerung der CL-Antwort ([1]; Konzentration 10^-6 %): 68,1%; prozentuelle Steigerung der CL-Antwort ([1]; Konzentration 10^-7 %): 55,3%; prozentuelle Steigerung der CL-Antwort ([1]; Konzentration 10^-8 %): 31,2%
CC[C@H]1CN2CC[C@@]3(C(=O)Nc4ccccc43)[C@@H]2C[C@@H]1/C(=C\OC)C(=O)OC [Isorhynchophyllin]		10,8%	25,2%	27,3%	16,1%	wirksamen	prozentuelle Phagozytosesteigerung ([2]; Konzentration 10^-6 (in %)): 8,8%
CN(Cc1cnc2nc(N)nc(N)c2n1)c1ccc(C(=O)N[C@@H](CCC(=O)O)C(=O)O)cc1 [Methotrexat]							inhibition at 2000 µg/mL [3]: 43%
COC(=O)C1=CO[C@@H](C)[C@H]2CN3CC[C@]4(C(=O)Nc5ccccc54)[C@@H]3C[C@H]12 [Mitraphyllin, normal-Mitraphyllin]						nicht wirksamen	
COC(=O)C1=CO[C@@H](C)[C@@H]2CN3CC[C@]4(C(=O)Nc5ccccc54)[C@@H]3C[C@H]12 [Pteropodin, allo-Pteropodin]		11,2%	21,7%	26,1%	23,0%	wirksamen	prozentuelle Steigerung der CL-Antwort ([1]; Konzentration 10^-3 %): 10,6%; prozentuelle Steigerung der CL-Antwort ([1]; Konzentration 10^-4 %): 10,0%; prozentuelle Steigerung der CL-Antwort ([1]; Konzentration 10^-5 %): 23,7%; prozentuelle Steigerung der CL-Antwort ([1]; Konzentration 10^-6 %): 15,4%
CC[C@H]1CN2CC[C@]3(C(=O)Nc4ccccc43)[C@@H]2C[C@@H]1/C(=C\OC)C(=O)OC [Rhynchophyllin]						nicht wirksamen	
C1CCN2C[C@@H]3C[C@@H](CN4CCCC[C@@H]34)[C@H]2C1 [Spartein, reference compound]	keine Wirkung						
COC(=O)C1=CO[C@@H](C)[C@@H]2CN3CC[C@@]4(C(=O)Nc5ccccc54)[C@H]3C[C@H]12 [Speciophyllin, reference compound]		10,5%	18,5%	26,0%	35,3%		
CC[C@]1(O)C[C@H]2CN(CCc3c([nH]c4ccccc34)[C@@](C(=O)OC)(c3cc4c(cc3OC)N(C=O)[C@H]3[C@@](O)(C(=O)OC)[C@H](OC(C)=O)[C@]5(CC)C=CCN6CC[C@]43[C@@H]65)C2)C1 [Vincristin, reference compound]							Wirkung im Granulozytentest ([2]; bis zu Verdünnungen von 10-^6%): keine Wirkungen; in-vitro-Hemmung der Makrophagen-Phagozytose [4]: in-vitro-Hemmung der Makrophagen-Phagozytose
Huangshanin [reference compound]	Negativ						
Thalifaberin [reference compound]	Negativ						
Thalifabin [reference compound]	Negativ						
